What was measured:
[1] = target: T7 RNAP (Escherichia phage T7, UniProt P00573); conditions: transcription initiation; read-out: Kd for the first initiating NTP; cited from earlier work
[2] = target: T1, T7 RNA polymerase (Escherichia phage T7, UniProt P00573); assay type: biochemical, T7 bacteriophage; conditions: Primer/NTP Formulation 1: 6 mM primer, 1.5 mM GTP, 7.5 mM each ATP, CTP, UTP; capped peaks/(capped + 5′ OH peak)
T1 construct: purchased New England Biolabs M0251
Description: A double stranded DNA transcription template encoding firefly luciferase was generated by polymerase chain reaction. The +1 template nucleotide was 2′-deoxycytidine. Transcription reactions were assembled with 25 ug/mL transcription template, 40 mM Tris-HCl (pH 8.0), 27 mM MgCl2, 2 mM spermidine, 10 mM DTT, 0.002% Triton X-100, 1000 unit/mL murine RNase inhibitor (New England Biolabs catalog #M0314), 2 unit/mL inorganic pyrophosphatase (New England Biolabs catalog #M2403), 4000 units/mL T7 RNA polymerase (New England Biolabs catalog #M0251), 6 mM ARCA (^m7G3′OmepppGG), 1.5 mM GTP, 7.5 mM ATP, 7.5 mM CTP and 7.5 mM UTP. Transcriptions were incubated at 37° C. for 2 hours. Reactions were supplemented with 10 mM Tris-HCl (pH 7.6), 2.5 mM MgCl2, 0.5 mM CaCl2 and 100 units/mL DNase I (New England Biolabs catalog #M0303) and incubated for 1 hour at 37° C. The resulting mRNAs were purified using an RNeasy Maxi kit (Qiagen catalog #75162) according to manufacturer's instructions. mRNAs were eluted in water and dephosphorylated by adjusting the solution to 50 mM Bis-Tris-Propane HCl (pH 6.0), 1 mM MgCl2, 0.1 mM ZnCl2 and 250 units/mg Antarctic phosphatase (New England Biolabs catalog #M0289). The reaction were incubated at 37° C. for 1 hour. The resulting mRNAs were purified using an RNeasy Maxi kit (Qiagen catalog #75162) according to manufacturer's instructions. mRNAs were eluted in water.
A double stranded firefly luciferase DNA transcription template specific for each trimer is generated by polymerase chain reaction. These templates differed in template nucleotides +1 and +2. For a given trimer, template nucleotide +1 was complementary to B1 (the nucleotide destined to become transcript nucleotide +1). Likewise template nucleotide +2 was complementary to […] (the nucleotide destined to become transcript nucleotide +2; see Example 10)). Transcription reactions are assembled with 25 ug/mL transcription template, 40 mM Tris-HCl (pH 8.0), 27 mM MgCl2, 2 mM spermidine, 10 mM DTT, 0.002% Triton X-100, 1000 unit/mL murine RNase inhibitor (New England Biolabs catalog #M0314), 2 unit/mL inorganic pyrophosphatase (New England Biolabs catalog #M2403), 4000 units/mL T7 RNA polymerase (New England Biolabs catalog #M0251) and 6 mM of initiating capped oligonucleotide primer, 1.5 mM GTP and 7.5 mM each of ATP, CTP and UTP. In subsequent examples, this primer/NTP formulation will be referred to as Primer/NTP Formulation 1. It is clear to one skilled in the art that other polymerases such as T7, T3 or SP6 RNA polymerases could be used instead of T7 RNA polymerase to perform the same function by using their respective promoters. Transcription reaction mixtures are incubated at 37° C. for 2 hours. Reactions are supplemented with 10 mM Tris-HCl (pH 7.6), 2.5 mM MgCl2, 0.5 mM CaCl2 and 100 units/mL DNase I (New England Biolabs catalog #M0303) and incubated for 1 hour at 37° C. The resulting mRNAs are purified using an RNeasy Maxi kit (Qiagen catalog #75162) according to manufacturer's instructions. mRNAs are eluted in water and dephosphorylated by adjusting the solution to 50 mM Bis-Tris-Propane HCl (pH 6.0), 1 mM MgCl2, 0.1 mM ZnCl2 and 250 units/mg Antarctic phosphatase (New England Biolabs catalog #M0289). The reaction is incubated at 37° C. for 1 hour. The resulting mRNAs are purified using an RNeasy Maxi kit (Qiagen catalog #75162) according to manufacturer's instructions. mRNAs are eluted in water.
Initiating capped oligonucleotide primer ^7mG3′OmepppA2′OmepG2′OmepG were used in transcription. Transcription were carried out as in Example 11 with the following modifications. A double stranded DNA transcription template specific for tetramer was generated by polymerase chain reaction. The template nucleotide +1 (2′-deoxythymidine) was complementary to Adenosine (the first nucleotide of the primer destined to become a transcript nucleotide +1).

[3] = tested on: THP-1 cells; experiment: Translation of luciferase mRNAs in differentiated THP-1 cells; assay type: cell-based; conditions: 100 ng mRNA per well
Description: In order to assess the expression of luciferase mRNAs generated in Examples 14 and 15, mRNAs were transfected into THP-1 cells (ATCC, Catalog #TIB-202) with six replicates. THP-1 cells were cultured in ATCC formulated RPMI-1640 (ATCC, Catalog #30-2001) supplemented with 10% FBS, sodium pyruvate and penicillin/streptomycin at 37° C. under an atmosphere of 5% CO2. Cells were seeded at 2E+05 cells per well in a 24-well plate format in the presence of the phorbol ester 12-O-Tetradecanoylphorbol-13-acetate (TPA; Cell Signaling Technologies, Catalog #4174) to induce differentiation. Cells were transfected with 100 ng of mRNA per well 72 hours after seeding. For comparison, cells were also transfected with a Cap0 luciferase mRNA generated by initiation with ARCA. At 20 hours post-transfection, cells were harvested and luciferase activity was measured using a ONE-Glo Luciferase Assay System kit (Promega Catalog #E6120) according to the manufacturer's recommendations. Luminescence was measured using a GloMax-Multi+Detection System instrument according to the manufacturer's recommendations. Data were graphed as the mean of six replicates +/−the standard deviation from the mean. Data were analyzed using the Unpaired t-test to generate p values as a measure of significance. […] In FIG. 14B, we also assessed the activity of an mRNA that was made with the “TC” Template and capped with ARCA (Cap 0). […]

[4] = excess of ^7mGpppG over pppG from 4:1 to 10:1; cited from earlier work
[5] = target: T1, T7 RNA polymerase; experiment: Capping assay (LC-MS) of mRNA made with ^m7GpppA2′OmepG on "TC" vs "CC" transcription template; assay type: biochemical, T7 bacteriophage
Description: (§1) A double stranded firefly luciferase DNA transcription template was used with 2′-deoxythymidine and 2′-deoxycytidine residues at template positions +1 and +2, respectively. Two transcription reactions were assembled with 25 ug/mL transcription template, 40 mM Tris-HCl (pH 8.0), 27 mM MgCl2, 2 mM spermidine, 10 mM DTT, 0.002% Triton X-100, 1000 unit/mL murine RNase inhibitor (New England Biolabs catalog #M0314), 2 unit/mL inorganic pyrophosphatase (New England Biolabs catalog #M2403), 4000 units/mL T7 RNA polymerase (New England Biolabs catalog #M0251). The two transcriptions differed in the amount of initiating capped oligonucleotide, amount of NTPs and the identity of NTPs. The first transcription was designed to mimic the transcription conditions of Ishikawa et al. (Nucleic Acids Symposium Series No. 53:129 (2009)). This transcription reaction contained 6 mM of ^m7GpppA2′OmepG initiating capped oligonucleotide primer, 0.9 mM GTP and 7.5 mM of ATP, CTP and UTP. In subsequent examples this primer/NTP formulation will be referred to as Primer/NTP Formulation 2. In this formulation, the initiating oligonucleotide primer was in greater than 6 fold excess over GTP. The second transcription used 5 mM of ^m7GpppA2′OmepG initiating capped oligonucleotide primer, 5 mM GTP, ATP, CTP and pseudouridine triphosphate […]. In subsequent examples this primer/NTP formulation will be referred to as Primer/NTP Formulation 3. In Primer/NTP Formulation 3, the GTP concentration was increased in order to produce commercially useful amounts of RNA. It is clear to one skilled in the art that other polymerases such as T7, T3 or SP6 RNA polymerases could be used instead of T7 RNA polymerase to perform the same function by using their respective promoters. Transcription reaction mixtures are incubated at 37° C. for 2 hours. Reactions were supplemented with 10 mM Tris-HCl (pH 7.6), 2.5 mM MgCl2, 0.5 mM CaCl2 and 100 units/mL DNase I (New England Biolabs catalog #M0303) and incubated for 1 hour at 37° C. The resulting mRNAs were purified using an RNeasy Maxi kit (Qiagen catalog #75162) according to manufacturer's instructions. mRNAs were eluted in water and dephosphorylated by adjusting the solution to 50 mM Bis-Tris-Propane HCl (pH 6.0), 1 mM MgCl2, 0.1 mM ZnCl2 and 250 units/mg Antarctic phosphatase (New England Biolabs catalog #M0289). The reaction was incubated at 37° C. for 1 hour for Primer/NTP Formulation 2 and 3 hours for Primer/NTP Formulation 3 hour. The resulting mRNAs were purified using an RNeasy Maxi kit (Qiagen catalog #75162) according to manufacturer's instructions. mRNAs were eluted in water. The purified transcription yields with Primer/NTP Formulation 2 and 3 were 0.7 milligram/milliliter transcription reaction (mg/mL) and 3.9 mg/mL transcription reaction, respectively.
A double stranded firefly luciferase DNA transcription template was used in which the +1 and +2 template nucleotides were cytidines and thus not completely complementary to the ^m7GpppA2′OmepG initiating capped oligonucleotide primer. Two transcription reactions were assembled with 25 ug/mL transcription template, 40 mM Tris-HCl (pH 8.0), 27 mM MgCl2, 2 mM spermidine, 10 mM DTT, 0.002% Triton X-100, 1000 unit/mL murine RNase inhibitor (New England Biolabs catalog #M0314), 2 unit/mL inorganic pyrophosphatase (New England Biolabs catalog #M2403), 4000 units/mL T7 RNA polymerase (New England Biolabs catalog #M0251). The two transcriptions differed in the amount of initiating capped oligonucleotide and NTPs. The first transcription was designed to mimic the transcription conditions of Ishikawa et al. (Nucleic Acids Symposium Series No. 53: 129 (2009)). This transcription reaction contained Primer/NTP Formulation 2. The second transcription used Primer/NTP Formulation 3. It is clear to one skilled in the art that other polymerases such as T7, T3 or SP6 RNA polymerases could be used instead of T7 RNA polymerase to perform the same function by using their respective promoters. […]

[6] = target: T1, T7 RNA polymerase; experiment: In vitro transcription of firefly luciferase template, purified transcription yield; assay type: biochemical, T7 bacteriophage
Description: as §1, with “reaction, respectively. […]” for “reaction, respectively.”

T1 sequence (P00573 whole entry): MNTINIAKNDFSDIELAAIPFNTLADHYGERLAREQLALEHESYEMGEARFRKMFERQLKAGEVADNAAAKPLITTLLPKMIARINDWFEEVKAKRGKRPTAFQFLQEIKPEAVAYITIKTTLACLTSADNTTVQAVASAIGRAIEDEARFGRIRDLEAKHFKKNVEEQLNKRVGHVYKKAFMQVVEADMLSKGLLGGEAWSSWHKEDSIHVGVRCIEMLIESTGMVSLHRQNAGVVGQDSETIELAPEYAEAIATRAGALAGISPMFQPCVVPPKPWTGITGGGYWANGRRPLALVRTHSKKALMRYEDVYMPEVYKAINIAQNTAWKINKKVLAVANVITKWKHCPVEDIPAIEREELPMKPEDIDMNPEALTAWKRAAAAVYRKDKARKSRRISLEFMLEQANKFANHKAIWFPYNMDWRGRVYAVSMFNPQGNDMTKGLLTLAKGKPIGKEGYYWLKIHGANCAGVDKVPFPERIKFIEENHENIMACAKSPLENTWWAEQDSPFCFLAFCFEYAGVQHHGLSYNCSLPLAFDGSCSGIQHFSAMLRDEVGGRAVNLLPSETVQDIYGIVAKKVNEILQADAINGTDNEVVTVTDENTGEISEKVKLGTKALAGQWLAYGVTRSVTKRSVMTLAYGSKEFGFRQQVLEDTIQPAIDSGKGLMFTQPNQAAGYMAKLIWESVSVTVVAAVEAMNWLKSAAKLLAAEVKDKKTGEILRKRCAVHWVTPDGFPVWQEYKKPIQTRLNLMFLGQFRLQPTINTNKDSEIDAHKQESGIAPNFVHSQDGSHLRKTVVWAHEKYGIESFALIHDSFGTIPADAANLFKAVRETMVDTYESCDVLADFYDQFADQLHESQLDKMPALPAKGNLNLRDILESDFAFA
Sequence of T7 RNAP (P00573 whole entry): as above

Molecule: Nc1nc2c(ncn2[C@@H]2O[C@H](COP(=O)(O)OP(=O)(O)OP(=O)(O)O)[C@@H](O)[C@H]2O)c(=O)[nH]1 [GTP, guanosine triphosphate]
- Kd [1]: 2000 µM

Molecule: ^7mG(3′-O-Me)pppG [^m7G3′OmepppG, reference compound]
- observed % capping (capping efficiency) [2]: 79%
- luciferase activity relative to transcripts made with ^m7GpppA2′OmepG on "TC" template ([3]; "TC" template, 20 hours post-transfection (FIG. 14B)): significantly less activity

Molecule: ^7mG(5′)ppp(5′)G [^7mGpppG]
- 5′-Cap structure mRNA transcripts [4]: 80-90%

Molecule: ^m7G3′OmepppA2′OmepG
- observed % capping (capping efficiency) [2]: 99%

Molecule: ^m7G3′OmepppC2′OmepG
- observed % capping (capping efficiency) [2]: 97%

Molecule: ^m7G3′OmepppG2′OmepG
- observed % capping (capping efficiency) [2]: 87%

Molecule: ^m7GpppA2′OmepG
- fidelity of templated transcription initiation ([5]; template +1/+2 2′-deoxythymidine/2′-deoxycytidine, Formulations 2 and 3 (FIGS. 13A, 13B)): Only minor aberrant initiation products were detected
- capping efficiency ([5]; template +1/+2 2′-deoxythymidine/2′-deoxycytidine, Primer/NTP Formulation 2 (FIG. 13A)): 99%
- capping efficiency ([5]; template +1/+2 2′-deoxythymidine/2′-deoxycytidine, Primer/NTP Formulation 3 (FIG. 13B)): 96%
- fidelity of templated transcription initiation ([5]; template +1/+2 cytidine, Formulations 2 and 3 (FIGS. 13C, 13D)): initiated in two registers
- calculated capping efficiency (Cap 1+A and Cap 1 GtoA) ([5]; template +1/+2 cytidine, Primer/NTP Formulation 2 (FIG. 13C)): 97%
- calculated capping efficiency (Cap 1+A and Cap 1 GtoA) ([5]; template +1/+2 cytidine, Primer/NTP Formulation 3 (FIG. 13D)): 77%
- observed % capping (capping efficiency) [2]: 99%
- purified transcription yield ([6]; template +1/+2 2′-deoxythymidine/2′-deoxycytidine, Primer/NTP Formulation 2): 0.7 mg/mL
- purified transcription yield ([6]; template +1/+2 2′-deoxythymidine/2′-deoxycytidine, Primer/NTP Formulation 3): 3.9 mg/mL
- purified transcription yield ([6]; template +1/+2 cytidines, Primer/NTP Formulation 2): 0.6 mg/mL
- purified transcription yield ([6]; template +1/+2 cytidines, Primer/NTP Formulation 3): 3.9 mg/mL
- translation (luciferase activity), "TC" template vs "CC" template ([3]; 20 hours post-transfection, Primer/NTP Formulations 2 and 3 (FIG. 14A, 14B)): significantly superior

Molecule: ^m7GpppA2′OmepG2′OmepG
- observed % capping (capping efficiency) [2]: 50%

Molecule: ^m7GpppC2′OmepG
- observed % capping (capping efficiency) [2]: 98%

Molecule: ^m7GpppG2′OmepG
- observed % capping (capping efficiency) [2]: 89%

— US11578095B2, “Compositions and methods for synthesizing 5'-Capped RNAs” (TriLink Biotechnologies, LLC, priority 2015, dated 2023)
